Experimental data from patent publication US20120214862A1, “MODULATION OF FACTOR 7 EXPRESSION” (ISIS Pharmaceuticals, Inc., priority 2009, published 2012).

Columns and labels:
BALB/c mice = assay: Tail bleeding assay; details: for Blood: BALB/c mice, blood collected over 40 minutes, PBS 0.06
murine Factor 7 mRNA = assay: Liver Factor 7 mRNA by real-time RT-PCR in treated BALB/c mice; format: in vivo, mouse
Experimental: A control group of mice was injected subcutaneously with PBS twice a week for 3 weeks. After the treatment period, whole liver was collected for RNA and protein analysis, and plasma was collected for clotting analysis (PT/aPTT).
(§1) RNA was extracted from liver tissue for real-time RT-PCR analysis of Factor 7.
A control group of 3 mice was injected with a single dose of PBS, and mice in this group were sacrificed on day 1. Mice in all groups were sacrificed by cervical dislocation following anesthesia with 150 mg/kg ketamine mixed with 10 mg/kg xylazine administered by intraperitoneal injection. Liver was harvested for RNA analysis and plasma was collected for clotting analysis (PT and aPTT).
as §1
Mice from the first group were sacrificed on days 1 and 3 after the single dose. […] A control group of 3 mice was injected with PBS in a single dose. Mice from the control group were sacrificed 1 day later. Mice in all groups were sacrificed by cervical dislocation following anesthesia with 150 mg/kg ketamine mixed with 10 mg/kg xylazine administered by intraperitoneal injection. Liver was harvested for RNA analysis and plasma was collected for clotting analysis (PT and aPTT) for mice in all groups.
RNA was extracted from liver tissue for quantitative RT-PCR analysis of Factor 7.
(§2) Two control groups of BALB/c mice were treated with PBS, administered subcutaneously twice a week for 3 weeks. Thrombus formation was induced with FeCl3 in half of the mice while the rest of the mice were assayed for tail bleeding. […] Thrombus formation was induced with FeCl3 in all groups of the VT mice except the first control group.
as §1
A fifth group of BALB/c mice was treated with 3 mg/kg of warfarin, administered intraperioneally daily for 6 days. Four hours after the last dose of warfarin, mice were sacrificed. A control group of BALB/c mice were treated with PBS, administered subcutaneously twice a week for 3 weeks. Two days after the last dose of PBS, mice were anesthetized with 150 mg/kg ketamine mixed with 10 mg/kg xylazine administered by intraperitoneal injection. Thrombus formation was induced with FeCl3 in groups of mice except the first control group.

platelet factor-4 (PF-4) = assay: FeCl3 induced venous thrombosis (VT) model, real-time RT-PCR quantification of PF-4 in vena cava as measure of thrombus formation; format: in vivo, mouse; details: for PF-4 (percentage compared to PBS controls): vena cava, BALB/c mice
Experimental: as §2
In mice undergoing FeCl3 treatment, thrombus formation was induced by applying a piece of filter paper ([…]) pre-saturated with 10% FeCl3 solution directly on the vena cava. After 3 minutes of exposure, the filter paper was removed. Thirty minutes after the filter paper application, a fixed length of the vein containing the thrombus was dissected out for platelet analysis. Liver was collected for RNA analysis.
(§3) Real-time RT-PCR quantification of platelet factor-4 (PF-4) was used to quantify platelets in the vena cava as a measure of thrombus formation.
Six additional groups of BALB/c mice was treated with 0.5 mg/kg, 1 mg/kg, 2 mg·kg, 3 mg/kg, 4 mg/kg, or 5 mg/kg of warfarin, administered intraperioneally daily for 6 days. Four hours after the last dose of warfarin, mice were sacrificed. A control group of BALB/c mice were treated with PBS, administered subcutaneously twice a week for 3 weeks. Two days after the last dose of PBS, mice were anesthetized with 150 mg/kg ketamine mixed with 10 mg/kg xylazine administered by intraperitoneal injection. Thrombus formation was induced with FeCl3 in groups of mice except the first control group.
In mice undergoing FeCl3 treatment, thrombus formation was induced by applying a piece of filter paper (2×4 mm) pre-saturated with 10% FeCl3 solution directly on the vena cava. After 3 minutes of exposure, the filter paper was removed. Thirty minutes after the filter paper application, a fixed length of the vein containing the thrombus was dissected out for platelet analysis. Liver was collected for RNA analysis.
as §3
Thrombus formation was induced with FeCl3 in all of the mice except the first […] control groups. All mice were anesthetized with 150 mg/kg of ketamine mixed with 10 mg/kg of xylazine administered by intraperitoneal injection.
After 3 minutes of exposure, the filter paper was removed. Thirty minutes after the filter paper application, a fixed length of the vein containing the thrombus was dissected out for platelet analysis.
Real-time PCR quantification of PF-4 was used to quantify platelets in the vena cava as a measure of thrombus formation. […] Data is presented as percent of PF-4 mRNA as compared to the PBS+ FeCl3 control, […]

Structure (SMILES): CC(=O)CC(c1ccccc1)c1c(O)c2ccccc2oc1=O (stereo not shown) [warfarin, reference compound]
- Blood (BALB/c mice; 0.5 mg/kg i.p. daily for 6 days): 0.16 g
- Blood (BALB/c mice; 1 mg/kg i.p. daily for 6 days): 0.28 g
- Blood (BALB/c mice; 2 mg/kg i.p. daily for 6 days): 0.58 g
- Blood (BALB/c mice; 3 mg/kg i.p. daily for 6 days): 0.78 g
- Blood (BALB/c mice; 4 mg/kg i.p. daily for 6 days): 0.66 g
- Blood (BALB/c mice; 5 mg/kg i.p. daily for 6 days): 0.93 g
- bleeding as compared to PBS control mice (BALB/c mice; Example 17, 0.5-5 mg/kg intraperitoneally daily for 6 days): did increase bleeding
- reduction of Factor 7 mRNA as compared to the PBS control (murine Factor 7 mRNA; Example 15, 3 mg/kg intraperitoneally daily for 6 days): did not result in significant reduction
- % inhibition of Factor 7 mRNA (murine Factor 7 mRNA; liver, BALB/c mice, FeCl3 VT model, 3 mg/kg i.p. daily for 6 days, relative to PBS control): 10%
- PF-4 in comparison to the PBS control (platelet factor-4 (PF-4); Example 16, dose of 1 mg/kg and higher, intraperitoneally daily for 6 days): reduction of PF-4
- PF-4 (percentage compared to PBS controls) (platelet factor-4 (PF-4); FeCl3, 0.5 mg/kg i.p. daily for 6 days): 165%
- PF-4 (percentage compared to PBS controls) (platelet factor-4 (PF-4); FeCl3, 1 mg/kg i.p. daily for 6 days): 63%
- PF-4 (percentage compared to PBS controls) (platelet factor-4 (PF-4); FeCl3, 2 mg/kg i.p. daily for 6 days): 47%
- PF-4 (percentage compared to PBS controls) (platelet factor-4 (PF-4); FeCl3, 3 mg/kg i.p. daily for 6 days): 35%
- PF-4 (percentage compared to PBS controls) (platelet factor-4 (PF-4); FeCl3, 4 mg/kg i.p. daily for 6 days): 22%
- PF-4 (percentage compared to PBS controls) (platelet factor-4 (PF-4); FeCl3, 5 mg/kg i.p. daily for 6 days): 0%
